Assay results from article PMC4863226 (Molecular imaging, 2015).
Where a SMILES comes first, the peptide text is derived from it. Bridges are numbered along the chain shown (N, C = ends). The star is where a group is joined. DOTA = O=C(O)CN1CCN(CC(=O)O)CCN(CC(=O)*)CCN(CC(=O)O)CC1; NOTA = O=C(O)CN1CCN(CC(=O)O)CCN(CC(=O)*)CC1; X1 = O=[N+]([O-])c1cc([N+](=O)[O-])c(*)cc1F; PEG4 = NCCOCCOCCOCCOCCC(=O)O

Key:
[1] = in vivo; details: female, athymic Nu/Nu, mouse, 3.7 MBq, total radioactivity
[2] = tested on: HCT-116 tumor bearing mice; test: Biodistribution; details: for Bone uptake / Brain uptake / Fat uptake / Heart uptake / Kidney uptake / L lg int (lower large intestine) uptake / Liver uptake / Lung uptake / Muscle uptake / Sm int (small intestine) uptake / Spleen uptake / Stomach uptake / U lg int (upper large intestine) uptake: HCT-116 tumor bearing mice; for Bone uptake / Brain uptake / Fat uptake / Heart uptake / Kidney uptake / L lg int (lower large intestine) uptake / Liver uptake / Lung uptake / Muscle uptake / Sm int (small intestine) uptake / Spleen uptake / Stomach uptake / U lg int (upper large intestine) uptake / Tumor uptake: gamma counter; for Bone uptake / Brain uptake / Fat uptake / Heart uptake / Kidney uptake / L lg int (lower large intestine) uptake / Liver uptake / Lung uptake / Muscle uptake / Sm int (small intestine) uptake / Spleen uptake / Stomach uptake / U lg int (upper large intestine) uptake / Tumor uptake / Tumor-to-blood ratio: mean ± SD; for Tumor uptake: HCT-116 tumor xenograft; for Tumor uptake / Tumor-to-blood ratio: mice; for Tumor-to-blood ratio: HCT-116 tumor xenografts
[3] = Sm int (small intestine) uptake

CC[C@H](C)[C@@H]1NC(=O)[C@H](CC(=O)O)NC(=O)[C@@H](NC(=O)[C@H](CCC(=O)O)NC(=O)[C@H](CC(N)=O)NC(=O)CNC(=O)CNC(=O)CCOCCOCCOCCOCCNC(=O)CN2CCN(CC(=O)O)CCN(CC(=O)O)CC2)CSSC[C@@H](C(=O)N[C@@H](Cc2ccccc2)C(=O)N[C@@H](CCC(=O)O)C(=O)N[C@@H](CCCNC(=N)N)C(=O)N[C@@H](CCCCNc2cc(F)c([N+](=O)[O-])cc2[N+](=O)[O-])C(N)=O)NC(=O)[C@H](CCC(=O)O)NC(=O)[C@H](Cc2c[nH]c3ccccc23)NC(=O)[C@H](CCC(=O)O)NC(=O)[C@H](Cc2c[nH]c3ccccc23)NC(=O)[C@H](CCSC)NC(=O)[C@H](CCCNC(=N)N)NC(=O)[C@H](C)NC1=O [^55Co-NO2A-L19K-FDNB] ({NOTA-PEG4}-GGNECDIARMWEWECFERK(X1)-NH2; disulfide 5-15)
tissue uptake at 24 h ([1]; Bone uptake): 0.28 ± 0.04 %ID/g
tissue uptake at 48 h ([1]; Bone uptake): 0.14 ± 0.02 %ID/g
tissue uptake at 24 h ([1]; Fat uptake): 0.8 ± 0.4 %ID/g
tissue uptake at 48 h ([1]; Fat uptake): 0.3 ± 0.1 %ID/g
tissue uptake at 24 h ([1]; Liver uptake): 1 ± 0.1 %ID/g
tissue uptake at 48 h ([1]; Liver uptake): 0.44 ± 0.03 %ID/g
tissue uptake at 24 h ([1]; Lung uptake): 0.9 ± 0.1 %ID/g
tissue uptake at 48 h ([1]; Lung uptake): 0.46 ± 0.06 %ID/g
tissue uptake at 24 h [1, 3]: 0.26 ± 0.01 %ID/g
tissue uptake at 48 h [1, 3]: 0.14 ± 0.04 %ID/g
tissue uptake at 24 h ([1]; Tumor uptake): 0.9 ± 0.1 %ID/g
tissue uptake at 48 h ([1]; Tumor uptake): 0.49 ± 0.09 %ID/g

[Cl][55Co][Cl] [^55CoCl2]
Bone uptake ([2]; 2 hr p.i.): 1.3 ± 0.2 %ID/g
Brain uptake ([2]; 2 hr p.i.): 0.31 ± 0.02 %ID/g
Fat uptake ([2]; 2 hr p.i.): 1.5 ± 0.9 %ID/g
Heart uptake ([2]; 2 hr p.i.): 4.8 ± 0.4 %ID/g
Kidney uptake ([2]; 2 hr p.i.): 10.5 ± 1.4 %ID/g
L lg int (lower large intestine) uptake ([2]; 2 hr p.i.): 1.9 ± 1.0 %ID/g
Liver uptake ([2]; 2 hr p.i.): 15.7 ± 0.4 %ID/g
Lung uptake ([2]; 2 hr p.i.): 4.0 ± 0.3 %ID/g
Muscle uptake ([2]; 2 hr p.i.): 0.6 ± 0.1 %ID/g
Sm int (small intestine) uptake ([2]; 2 hr p.i.): 3.6 ± 0.6 %ID/g
Spleen uptake ([2]; 2 hr p.i.): 1.9 ± 0.4 %ID/g
Stomach uptake ([2]; 2 hr p.i.): 1.1 ± 0.1 %ID/g
U lg int (upper large intestine) uptake ([2]; 2 hr p.i.): 4.3 ± 0.8 %ID/g
Tumor uptake ([2]; 2 hr p.i.): 2.8 ± 0.6 %ID/g
Tumor-to-blood ratio ([2]; 2 hrs p.i.): 0.6 ± 0.1
Bone uptake ([2]; 24 hr p.i., n=3): 0.8 ± 0.1 %ID/g
Brain uptake ([2]; 24 hr p.i., n=3): 0.17 ± 0.03 %ID/g
Fat uptake ([2]; 24 hr p.i., n=3): 0.7 ± 0.4 %ID/g
Heart uptake ([2]; 24 hr p.i., n=3): 2.8 ± 0.7 %ID/g
Kidney uptake ([2]; 24 hr p.i., n=3): 4.4 ± 0.4 %ID/g
L lg int (lower large intestine) uptake ([2]; 24 hr p.i., n=3): 2.2 ± 0.3 %ID/g
Liver uptake ([2]; 24 hr p.i., n=3): 6.2 ± 0.8 %ID/g
Lung uptake ([2]; 24 hr p.i., n=3): 1.9 ± 0.1 %ID/g
Muscle uptake ([2]; 24 hr p.i., n=3): 0.37 ± 0.08 %ID/g
Sm int (small intestine) uptake ([2]; 24 hr p.i., n=3): 1.1 ± 0.2 %ID/g
Spleen uptake ([2]; 24 hr p.i., n=3): 0.82 ± 0.05 %ID/g
Stomach uptake ([2]; 24 hr p.i., n=3): 1.0 ± 0.2 %ID/g
U lg int (upper large intestine) uptake ([2]; 24 hr p.i., n=3): 1.5 ± 0.1 %ID/g
Tumor uptake ([2]; 24 hr p.i., n=3): 1.6 ± 0.2 %ID/g
Bone uptake ([2]; 48 hr p.i., n=3): 0.5 ± 0.1 %ID/g
Brain uptake ([2]; 48 hr p.i., n=3): 0.11 ± 0.01 %ID/g
Fat uptake ([2]; 48 hr p.i., n=3): 0.23 ± 0.05 %ID/g
Heart uptake ([2]; 48 hr p.i., n=3): 1.4 ± 0.2 %ID/g
Kidney uptake ([2]; 48 hr p.i., n=3): 1.9 ± 0.2 %ID/g
L lg int (lower large intestine) uptake ([2]; 48 hr p.i., n=3): 1.2 ± 0.2 %ID/g
Liver uptake ([2]; 48 hr p.i., n=3): 2.7 ± 0.7 %ID/g
Lung uptake ([2]; 48 hr p.i., n=3): 0.98 ± 0.09 %ID/g
Muscle uptake ([2]; 48 hr p.i., n=3): 0.17 ± 0.03 %ID/g
Sm int (small intestine) uptake ([2]; 48 hr p.i., n=3): 0.50 ± 0.04 %ID/g
Spleen uptake ([2]; 48 hr p.i., n=3): 0.46 ± 0.04 %ID/g
Stomach uptake ([2]; 48 hr p.i., n=3): 0.5 ± 0.1 %ID/g
U lg int (upper large intestine) uptake ([2]; 48 hr p.i., n=3): 0.7 ± 0.1 %ID/g
Tumor uptake ([2]; 48 hr p.i., n=3): 0.86 ± 0.08 %ID/g
Tumor-to-blood ratio ([2]; 48 hrs p.i., P=0.006 vs 2 hrs): 1.9 ± 0.4
Consecutive decrease in liver and kidney uptake ([2]; at 24 and 48 hrs p.i. after high uptake at 2 hrs p.i.): about 2 fold
Increase of tumor-to-blood ratio ([2]; from 2 to 48 hrs p.i.): 3 fold

CC[C@H](C)[C@@H]1NC(=O)[C@H](CC(=O)O)NC(=O)[C@@H](NC(=O)[C@H](CCC(=O)O)NC(=O)[C@H](CC(N)=O)NC(=O)CNC(=O)CNC(=O)CCOCCOCCOCCOCCNC(=O)CN2CCN(CC(=O)O)CCN(CC(=O)O)CCN(CC(=O)O)CC2)CSSC[C@@H](C(=O)N[C@@H](Cc2ccccc2)C(=O)N[C@@H](CCC(=O)O)C(=O)N[C@@H](CCCNC(=N)N)C(=O)N[C@@H](CCCCNc2cc(F)c([N+](=O)[O-])cc2[N+](=O)[O-])C(N)=O)NC(=O)[C@H](CCC(=O)O)NC(=O)[C@H](Cc2c[nH]c3ccccc23)NC(=O)[C@H](CCC(=O)O)NC(=O)[C@H](Cc2c[nH]c3ccccc23)NC(=O)[C@H](CCSC)NC(=O)[C@H](CCCNC(=N)N)NC(=O)[C@H](C)NC1=O [^55Co-DO3A-L19K-FDNB] ({DOTA-PEG4}-GGNECDIARMWEWECFERK(X1)-NH2; disulfide 5-15)
tissue uptake at 24 h ([1]; Bone uptake): 0.3 ± 0.04 %ID/g
tissue uptake at 48 h ([1]; Bone uptake): 0.26 ± 0.05 %ID/g
tissue uptake at 24 h ([1]; Fat uptake): 0.4 ± 0.1 %ID/g
tissue uptake at 48 h ([1]; Fat uptake): 0.3 ± 0.03 %ID/g
tissue uptake at 24 h ([1]; Liver uptake): 1.1 ± 0.2 %ID/g
tissue uptake at 48 h ([1]; Liver uptake): 0.7 ± 0.1 %ID/g
tissue uptake at 24 h ([1]; Lung uptake): 0.8 ± 0.1 %ID/g
tissue uptake at 48 h ([1]; Lung uptake): 0.56 ± 0.03 %ID/g
tissue uptake at 24 h [1, 3]: 0.31 ± 0.04 %ID/g
tissue uptake at 48 h [1, 3]: 0.19 ± 0.03 %ID/g
tissue uptake at 24 h ([1]; Tumor uptake): 1.1 ± 0.2 %ID/g
tissue uptake at 48 h ([1]; Tumor uptake): 0.71 ± 0.03 %ID/g
